# Results as given in patent US20080112968A1, “NICOTINAMIDE COMPOSITIONS FOR TREATMENT OF SKIN DISEASES AND DISORDERS” (Dermena, priority 2006, published 2008).
# What was measured:
# [1] = Binding of pyridinium salts to sepharose immobilized heparin (spectrophotometric degree of binding); details: water solution incubated 5 minutes with sepharose immobilized heparin 25 mg/mL
# Text: Spectrophotometric methodologies were applied to estimate a degree of binding (DB) of the investigated compounds with heparin. This method is based on the absorption measurements of water solution of the investigated compound before and after a contact with heparin. The concentration was adjusted such that the absorbance in the region near the absorption maximum was around 1. The absorption spectra was collected for these prepared solutions. The same solutions of the investigated pyridinium salts were also incubated for 5 minutes with sepharose immobilized heparin (Heparin Sepharose CL-6B, Amersham Biosciences AB, Sweden) added in amount of 25 mg/mL. The suspensions of immobilized heparin with the analyzed compounds were then placed into Eppendorf microtubes and centrifuged at 13000 g for 4 minutes. The resulting clear solution over the sediment was introduced into a cuvette, and the absorption spectrum was measured. The degree of binding was estimated based on comparison of integrated area under the absorption curve for the solutions incubated and non-contacted with heparin.
# DB was calculated according to the equation (1):
# where: DB=degree of binding,
# IA=integrated area under absorption curve for sample without contact with immobilized heparin,
# IAHEP=integrated area under absorption curve for sample incubated with immobilized heparin.
# Solubility in water = assay type: physicochemical
SMILES,"Degree of binding, [%] [1]",solubility (Solubility in water)
"C[n+]1cccc(C(=O)NCO)c1 [Compound 4, 1-Methyl-N′-(hydroxymethyl)-nicotinamide]",20-45%,
"NC(=O)c1cccnc1 [Compound 8, Nicotinamide]",<20%,
"C[n+]1cccc(C(=O)[O-])c1 [Compound 7, Trigonelline]",<20%,
"CNC(=O)c1ccc[n+](C)c1 [Compound 2, 1,N′-Dimethylnicotinamide]",20-45%,
"CC(=O)c1ccc[n+](C)c1 [Compound 5, 1-Methyl-3-acetylpyridine]",20-45%,
"CCN(CC)C(=O)c1ccc[n+](C)c1 [Compound 3, 1-Methyl-N′,N′-diethylnicotin-amide]",20-45%,
"C[n+]1cccc(C(N)=O)c1 [Compound 1, 1-Methylnicotinamide]",>45%,> 600 mg/mL
"CCC[n+]1cccc(C(N)=O)c1 [Compound 6, 1-Propylnicotinamide]",20-45%,
